# “Also recorded” adds a separate entry of the source. Like-named read-outs stand apart in the source and are kept apart here.
# Legend:
# Format in all cases: in vivo, human
# [1] = Phase 1 single ascending dose (SAD)/food-effect plasma pharmacokinetics; conditions: for Cmax / Tmax / AUC(0-inf) / half-life: human, plasma, oral; for AUC(0-inf): read-out: AUC0-inf (mean)
# Protocol: Part A was a single ascending dose cohort study in which healthy, young subjects (less than 65 years old) received one dose of study drug in the morning after an overnight fast. Cohort dosing started at 10 mg and increased to 30 mg, 90 mg, 180 mg, 450 mg, and 1120 mg in subsequent cohorts. Six drug-treated and two placebo-treated subjects were randomized in each cohort. A seventh cohort of six subjects each received a single 90 mg dose of drug 30 min. after a meal. Following completion of all safety assessments and blood draws for PK analyses, subjects were discharged on Day 3.
# In Part A, blood draws for assessment of PK parameters occurred pre-dose and at 15, 30, 45, 60, and 90 minutes post dose as well as at 2, 3, 4, 8, 12, 24, 36, and 48 hours post dose. […] In Part B, blood samples for plasma PK analysis were taken on Day 1 at pre-dose and at 2 hours post-dose, on Day 3 at pre-dose and at 15, 30 and 45 minutes and 1, 2, 3, 4, 8, 12 and 24 hours post-dose, on Days 4, 6, 8 and 10 at pre-dose and at 1.5 hours post-dose and following the final dose on Day 14 at pre-dose and 15, 30 and 45 minutes and 1, 2, 4, 8, 12, 24, 36 and 48 hours post-dose.
# This was assessed by analysis of variance (ANOVA) of log-transformed Cmax, AUC0-24, AUC0-48, and/or AUC0-inf, using a model with factors for treatment (fed status or age [young vs. elderly] status) and subject within sequence. Treatment mean differences and 90% confidence intervals of the log transformed PK parameters were back-transformed, to present the geometric least squares means ratios and 90% confidence limits.
# [2] = Phase 1b/2a clinical trial (COG0102): safety and tolerability; conditions: for Mild TEAEs-n (%) / Moderate TEAEs-n (%) / SAEs-n (%) / Severe TEAEs-n (%) / TEAEs-n (%): once daily 28 days
# Protocol: Safety and pharmacokinetics were primary objectives of the study, with changes in molecular biomarkers and cognitive outcomes identified as an exploratory objective. […]
# (§1) This trial (ClinicalTrials.gov NCT02907567) was a randomized, double-blind, placebo-controlled clinical trial in mild to moderate Alzheimer's patients (MMSE 18-26) (See FIG. 1 for clinical trial design). The trial was conducted at six sites in Australia. Patients were randomized into placebo (n=5) or CT1812-treated groups: 90 mg (n=4), 280 mg (n=5) or 560 mg (n=5) and treated once daily for 28 days. Clinical chemistry was done at Sydpath (Sydney, AU). Pharmacokinetics were done at CPR Pharma Services (Adelaide, AU). Cerebrospinal fluid samples were taken at screening and day 21-28 of treatment and aliquoted. Plasma samples were taken at screening or Day 1 (one sample) and day 14-28, then spun down to separate plasma and aliquoted. One set of CSF samples was analyzed for Alzheimer's disease biomarkers; protein measurements (Aβ42, A1340, total tau, tau phosphorylated at threonine 181 (phosphorylated tau), NFL and neurogranin) were performed using commercially available ELISA assays from Fujirebio according to the manufacturer's instructions (INNOTEST β-AMYLOID(1-42), INNOTEST β-AMYLOID(1-40), INNOTEST hTau Ag, INNOTEST PHOSPHO-TAU(181P), Uman Diagnostics NFL assay). Neurogranin was measured with a sandwich ELISA method using antibodies Ng2 and Ng22 developed at the University of Gotteborg (Kvartsberg et al. 2015). Identical aliquots of CSF, and plasma were analyzed for protein expression changes via LC/MSMS at Caprion (see below).
# [3] = system: neurogranin, Aβ, tau, NFL in CSF; assay: CSF Alzheimer's disease biomarkers by ELISA (COG0102); conditions: for neurogranin reduced: 28 days
# Protocol: as §1
# [4] = 30 mg, single 30 mg, fasted (n = 6)
# [5] = 90 mg, single 90 mg, fasted (n = 6)
# [6] = 90 mg, single 90 mg, fed (n = 6)
# [7] = 180 mg, single 180 mg, fasted (n = 6)
# [8] = 450 mg, single 450 mg, fasted (n = 6)
# [9] = 1120 mg, single 1120 mg, fasted (n = 6)
# [10] = single 90 mg, geometric least-squares mean
smiles,measurement,setting,value
CC(C)(C)Oc1cc(CCC(C)(C)N2Cc3ccc(S(C)(=O)=O)cc3C2)ccc1O [CT1812],food effect on CT1812 exposure,[1]; 90 mg fed vs. fasted,not considered clinically significant; also recorded: no significant difference
same,Cmax and AUC / plasma concentration vs dose,[1]; SAD 10 mg to 1120 mg,dose proportional; also recorded: slightly greater than proportional with dose; also recorded: slightly greater than dose proportionally
same,Cmax,"[1]; 10 mg, single 10 mg, fasted, Day 1 (n = 6)",5.07 ng/mL
same,Tmax,"[1]; 10 mg, single 10 mg, fasted, Day 1 (n = 6), read-out: Tmax (median)",1.5 h
same,AUC(0-inf),"[1]; 10 mg, single 10 mg, fasted, Day 1, n = 5",30.6 ng·h/mL
same,half-life,"[1]; 10 mg, single 10 mg, fasted, Day 1, n = 5, read-out: t1/2 (mean) (converted)",12 h
same,Cmax,[1]; [4],19.5 ng/mL
same,AUC(0-inf),[1]; [4],77.2 ng·h/mL
same,Tmax,"[1]; 30 mg, single 30 mg, fasted (n = 6), read-out: Tmax (median)",0.88 h
same,half-life,"[1]; 30 mg, single 30 mg, fasted (n = 6), read-out: t1/2 (mean) (converted)",14 h
same,Cmax,[1]; [5],109 ng/mL
same,AUC(0-inf),[1]; [5],305 ng·h/mL
same,Tmax,"[1]; 90 mg, single 90 mg, fasted (n = 6), read-out: Tmax (median)",1.25 h
same,half-life,"[1]; 90 mg, single 90 mg, fasted (n = 6), read-out: t1/2 (mean) (converted)",12.1 h
same,Cmax,[1]; [6],81.7 ng/mL
same,AUC(0-inf),[1]; [6],261 ng·h/mL
same,Tmax,"[1]; 90 mg, single 90 mg, fed (n = 6), read-out: Tmax (median)",1.5 h
same,half-life,"[1]; 90 mg, single 90 mg, fed (n = 6), read-out: t1/2 (mean) (converted)",11.6 h
same,Cmax,[1]; [7],161 ng/mL
same,AUC(0-inf),[1]; [7],478 ng·h/mL
same,Tmax,"[1]; 180 mg, single 180 mg, fasted (n = 6), read-out: Tmax (median)",1.25 h
same,half-life,"[1]; 180 mg, single 180 mg, fasted (n = 6), read-out: t1/2 (mean) (converted)",11.1 h
same,Cmax,[1]; [8],504 ng/mL
same,AUC(0-inf),[1]; [8],1750 ng·h/mL
same,Tmax,"[1]; 450 mg, single 450 mg, fasted (n = 6), read-out: Tmax (median)",1.5 h
same,half-life,"[1]; 450 mg, single 450 mg, fasted (n = 6), read-out: t1/2 (mean) (converted)",12.2 h
same,Cmax,[1]; [9],1460 ng/mL
same,AUC(0-inf),[1]; [9],6320 ng·h/mL
same,Tmax,"[1]; 1120 mg, single 1120 mg, fasted (n = 6), read-out: Tmax (median)",1.5 h
same,half-life,"[1]; 1120 mg, single 1120 mg, fasted (n = 6), read-out: t1/2 (mean) (converted)",11.8 h
same,Tmax,"[1]; part A (SAD), 10-1120 mg, read-out: median Tmax in plasma, range over doses",0.88 to 1.5 h
same,half-life,"[1]; part A (SAD), read-out: apparent mean half-life, range over doses",11.1 to 14 h
same,AUC0-48h lower under fed vs fasted conditions,[1]; [10],~20%
same,AUC0-inf lower under fed vs fasted conditions,[1]; [10],~20%
same,Cmax lower under fed vs fasted conditions,[1]; [10],approximately 40%
same,Headache-n (%),[2]; 90 mg (as in Table 3),1 (25%) n (%)
same,Lymphocytopenia-n (%),[2]; 90 mg (as in Table 3),0 (0%) n (%)
same,Nausea-n (%),[2]; 90 mg (as in Table 3),0 (0%) n (%)
same,Vomiting-n (%),[2]; 90 mg (as in Table 3),0 (0%) n (%)
same,Mild TEAEs-n (%),[2]; 90 mg (n = 4),4 (100%) n (%)
same,Moderate TEAEs-n (%),[2]; 90 mg (n = 4),0 (0%) n (%)
same,SAEs-n (%),[2]; 90 mg (n = 4),0 (0%) n (%)
same,Severe TEAEs-n (%),[2]; 90 mg (n = 4),0 (0%) n (%)
same,TEAEs-n (%),[2]; 90 mg (n = 4),3 (75%) n (%)
same,Headache-n (%),[2]; 280 mg (as in Table 3),0 (0%) n (%)
same,Lymphocytopenia-n (%),[2]; 280 mg (as in Table 3),0 (0%) n (%)
same,Nausea-n (%),[2]; 280 mg (as in Table 3),0 (0%) n (%)
same,Vomiting-n (%),[2]; 280 mg (as in Table 3),0 (0%) n (%)
same,Mild TEAEs-n (%),[2]; 280 mg (n = 5),3 (60%) n (%)
same,Moderate TEAEs-n (%),[2]; 280 mg (n = 5),1 (20%) n (%)
same,SAEs-n (%),[2]; 280 mg (n = 5),0 (0%) n (%)
same,Severe TEAEs-n (%),[2]; 280 mg (n = 5),0 (0%) n (%)
same,TEAEs-n (%),[2]; 280 mg (n = 5),4 (80%) n (%)
same,Headache-n (%),[2]; 560 mg (as in Table 3),2 (40%) n (%)
same,Nausea-n (%),[2]; 560 mg (as in Table 3),2 (40%) n (%)
same,Vomiting-n (%),[2]; 560 mg (as in Table 3),2 (40%) n (%)
same,Mild TEAEs-n (%),[2]; 560 mg (n = 5),5 (100%) n (%)
same,Moderate TEAEs-n (%),[2]; 560 mg (n = 5),3 (60%) n (%)
same,SAEs-n (%),[2]; 560 mg (n = 5),0 (0%) n (%)
same,Severe TEAEs-n (%),[2]; 560 mg (n = 5),0 (0%) n (%)
same,TEAEs-n (%),[2]; 560 mg (n = 5),5 (100%) n (%)
same,safety and tolerability,"[2]; 90, 280 and 560 mg once daily 28 days, mild to moderate Alzheimer's patients",generally safe and well tolerated
same,ALT,"[2]; one participant at 560 mg, resolved by end of study, no increase in bilirubin",~4.7 ×ULN
same,neurogranin reduced,[3]; 90 mg dose group,33%
same,"Neurogranin, With CT1812","[3]; ELISA, direction of change",reduced and decreased and ↓*
same,"Aβ, tau and NFL biomarker levels",[3]; before and after treatment,remain unchanged
same,neurogranin reduced,[3]; pooled CT1812-treated group,17.6%

# Reference: US20200338045A1, “ISOINDOLINE COMPOSITIONS AND METHODS FOR TREATING NEURODEGENERATIVE DISEASE” (priority 2017, published 2020)
